“Also recorded” adds a separate entry of the source. Where a SMILES comes first, the peptide text is derived from it. Bridges are numbered along the chain shown (N, C = ends). Roman numbers before positions name the chains, in order. Triazole bridges read from a SMILES are 1,4-linked. Where no end group is shown, it is not given here. [ ]: non-standard residue; d: D form. The star is where a group is joined. Biotin = O=C1N[C@H]2[C@H](CS[C@H]2CCCCC(=O)*)N1; Lys(N3) = [N-]=[N+]=NCCCC[C@H](N)C(=O)O; PEG6 = NCCOCCOCCOCCOCCOCCOCCC(=O)O; dPra = C#CC[C@@H](N)C(=O)O

This is an account of results in patent US10975123B2, “Mutant Akt-specific capture agents, compositions, and methods of using and making” (California Institute of Technology, priority 2014, dated 2021).

One assay concerns the target T1, WT GST-PH Domain (Akt1) (Homo sapiens, UniProt P31749).
T1 construct: The first 124 N-terminal amino acids from full length Akt1 were used as the PH Domain DNA; GST (N); thrombin cleavage site (C); 6His (C); made in house; host or cells: E. coli BL21-DE3-pLys
Nature of the assay: Full curve ELISA, immobilized ligand, WT protein. The class given is binding. To be noted: in words. As to the method: The full curve ELISAs were obtained using streptavidin coated ELISA plates (Pierce). The ligands—anchor, biligand, triligand and “eflya” scrambled anchor peptide blank—were laid down at a concentration of 1 μM for one hour. Two lanes of each ligand were used on the plate for both proteins—WT and E17K GST-PH Domain. The plates were blocked with 5% BSA for two hours. Dilutions of both WT and E17K GST-PH Domain proteins were made in 0.5% BSA in 1×TBS starting from 1 μM-0.5 nM by serially diluting 1:2 down a series of 8 samples. For each ligand, a no protein blank was also used. The proteins were incubated with the blocked plate for one hour, washed 3× with 1×TBST+0.5% BSA and tapped dry, then detected with a 1:10,000 dilution of an HRP conjugated anti-GST pAb. The plate was again washed 3× with 1×TBST and tapped dry. It was developed with a 1:1 solution of TMB substrate and development was stopped with 1M H2SO4 and read on a plate reader. The curves in FIG. 4B were plotted by normalizing the signal by the blank wells, and were fitted to a Hill function in GraphPad using a common saturation and slope (Bmax=1.466+/−0.03, h=0.7383+/−0.025).

The target of assay [1] is T2, wildtype PH Domain (PHD) of Akt1 (Homo sapiens, UniProt P31749).
T2 construct: The first 124 N-terminal amino acids from full length Akt1 were used as the PH Domain DNA; made in house; host or cells: E. coli
Nature of the assay: Streptavidin-agarose immunoprecipitation (pulldown), WT. The class given is binding. Conditions: in words. The method, then:
(§1) Four biligand candidates were chosen based on their hydrophobicity and sequence homology using principal component analysis (FIG. 25). Biligands were synthesized by coupling the 2° ligand onto Rink Amide Resin on the Titan peptide synthesizer. The amide group on the end of the Lys(N3) was capped by shaking the resin with 2 mL acetic anhydride, 2 mL NMP and 0.5 mL DIEA for 3×10 minutes, then washed with NMP. FMOC-Propargylglycine-Otbu (Pra) was clicked onto the Lys(N3) on the 2° ligand by incubating 2 eq of the Pra amino acid with 2 eq CuI and 2 eq ascorbic acid with 1 eq azide on resin in 20% piperidine/NMP for 3 hours. The resin was washed 5×4 mL with a chelating solution of 1 g sodium diethyldithiocarbamate in 20 mL NMP and 1 mL DIEA. The anchor was then built onto the 2° ligand on bead, and an N-terminal PEG5-biotin tag were added. Assays were performed exactly as for the anchor ligands, except for two key differences. The biligand assays were done with 6 ug of GST-tagged PHD protein, instead of the untagged PHD that was used in the anchor pulldowns. The pull-downs were also conducted out of 1% serum in 1×TBS, as opposed to just 1×TBS.
(§2) Pulldown assays were done on Streptavidin Agarose resin from Invitrogen. The resin was incubated with N-terminal biotinylated anchor peptide candidates identified via the ClusterLigand sequence analysis. The anchor candidate coated beads were then incubated with either the wildtype or mutant protein to compare the selectivity of the ligands, as well as the binding ability. The bound protein was eluted and western blotted to compare the amount of protein present for each sample.
(§3) Relative protein band sizes were analyzed to compare binding between the anchor candidates and were used to determine selectivity for either wildtype or mutant PH Domain (FIG. 11). […] Both of these ligands look fairly selective for their respective PH Domain.

The target in assay [2] is T3, E17K PH Domain binding to PIP3 (Homo sapiens, UniProt P31749, E17K).
T3 construct: 2 μg of either wildtype or mutant PH Domain-GFP protein (234 nM); made in house; host or cells: HEK-293-6E (used as cell lysate, not purified)
Nature of the assay: PIP3 agarose inhibition assay, E17K. The class given is biochemical. To be noted: ligand 2.38 μM (10x protein), protein 234 nM, western blot, in words. The text has this: The yleaf ligand, the biligand, and the triligand were all tested for their ability to block the E17K PHD binding with PIP3. For this test, PIP3-coated resin (Echelon Biosciences) was used to mimic the PHD interaction with the cell membrane, and could be used to bind the protein as in an immunoprecipitation assay^22. The presence of an effective blocking compound would reduce the ability of the resin to capture the protein, and would thus appear as a diminished signal in the corresponding western blot assay. A control lane containing no capture agent was used to show baseline binding of the protein to the PIP3 resin. […] In an expanded study, we compared the amount of E17K and WT PH domain binding relative to the amount of added triligand (FIG. 5e).
PIP3 Agarose beads (Echelon) were used to detect for the inhibition of PH Domain binding to its substrate, PIP3, upon incubation with the anchor candidate peptide ligands. To test the inhibition of each of the ligands, anchor biligand and triligand, 20 μL of resin slurry was added to each of four tubes and washed three times with 1×TBS. Protein, 2 μg (234 nM) of E17K mutant, was preincubated for one hour at room temperature with either DMSO (no protein blank), anchor, biligand or triligand at 2.38 μM (10× in relation to protein) in 200 μL of 1×TBS. For the control, mutant PH Domain was incubated with 1×TBS and 1 μL […] to mimic the ligand conditions. These protein samples were then added to PIP3 agarose in a Spin-X tube and incubated at room temperature for two hours. The resin was washed three times with 1×TBS with 0.25% IGEPAL CA-630, spun out to dry completely, then denatured with 50 μL 3×SDS gel loading buffer for 10 min at 95° C. The gel loading buffer was spun out of the resin and detected via western blot as per the Streptavidin-Agarose Pulldowns. Inhibition was indicated by a decrease in the amount of PH Domain that was pulled down by the resin.
Expanded inhibition blots with either WT of E17K mutant protein were performed in a similar fashion. Twelve tubes of 20 μL of PIP3 agarose were washed three times with 1×TBS. 2 μg of either wildtype or mutant PH Domain-GFP protein (234 nM) in 200 uL 1×TBS were preincubated for 30 minutes with differing concentrations of triligand: 0.1 eq (23.4 nM), 1 eq (234 nM), 10 eq (2.34 μM), 100 eq (23.4 μM), and 1000 eq (234 μM). The protein and triligand solutions were then incubated with the PIP3 resin for 2 hours at room temperature. The resins were washed, eluted, and blotted as per all PH Domain western blots.

The target of assay [3] is T4, E17K mutant PH Domain (PHD) of Akt1 (Homo sapiens, UniProt P31749, E17K).
T4 construct: The first 124 N-terminal amino acids from full length Akt1 were used as the PH Domain DNA; made in house; host or cells: E. coli
Nature of the assay: Streptavidin-agarose immunoprecipitation (pulldown), E17K. The class given is binding. To be noted: in words. As to the method: as §1, §2, §3

Assay [4] deals with T5, E17K GST-PH Domain (E17K Akt1) (Homo sapiens, UniProt P31749, E17K).
T5 construct: The first 124 N-terminal amino acids from full length Akt1 were used as the PH Domain DNA; GST (N); thrombin cleavage site (C); 6His (C); made in house; host or cells: E. coli BL21-DE3-pLys
Nature of the assay: Full curve ELISA, immobilized ligand, E17K protein. The class given is binding. To be noted: in words. As to the method: The full curve ELISAs were obtained using streptavidin coated ELISA plates (Pierce). The ligands—anchor, biligand, triligand and “eflya” scrambled anchor peptide blank—were laid down at a concentration of 1 μM for one hour. Two lanes of each ligand were used on the plate for both proteins—WT and E17K GST-PH Domain. The plates were blocked with 5% BSA for two hours. Dilutions of both WT and E17K GST-PH Domain proteins were made in 0.5% BSA in 1×TBS starting from 1 μM-0.5 nM by serially diluting 1:2 down a series of 8 samples. For each ligand, a no protein blank was also used. The proteins were incubated with the blocked plate for one hour, washed 3× with 1×TBST+0.5% BSA and tapped dry, then detected with a 1:10,000 dilution of an HRP conjugated anti-GST pAb. The plate was again washed 3× with 1×TBST and tapped dry. It was developed with a 1:1 solution of TMB substrate and development was stopped with 1M H2SO4 and read on a plate reader.

Assay [5] has as its target T6, E17K 33-mer fragment (6His-tagged) (Homo sapiens, UniProt P31749, E17K/H13K).
T6 construct: made in house; host or cells: chemical synthesis (Fmoc SPPS)
T6 sequence (P31749 1-33 H13K/E17K limits assumed): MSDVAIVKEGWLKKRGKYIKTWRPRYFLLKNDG
Nature of the assay: HPLC-detected immunoprecipitation (pulldown), E17K 33-mer. The class given is binding. Conditions: 50 μM epitope, overnight 4° C., guanidine elution, in words. The text has this: The label-modified yleaf (SEQ ID NO: 43) peptide (FIG. 2a and FIG. 12) was subjected to a variety of binding assays against the synthesized WT and E17K 33-mer PHD fragments prepared without the biotin label and alkyne click handle. First, the yleaf (SEQ ID NO: 43) peptide was used in immunoprecipitation assays to pull-down either the WT or E17K mutant 6His-tagged (SEQ ID NO: 4) 33-mer peptide fragments (FIGS. 13 and 14), as opposed to the full-length proteins that were used to initially validate the candidates. Typical immunoprecipitation assays involve western blotting to estimate the amount of protein binding, but 33-mer peptide fragments are not easily quantified on a blot. Because of this, the amount of peptide epitope precipitated in these assays was quantified via injection on an analytical HPLC. These assays further confirmed preferential yleaf (SEQ ID NO: 43) ligand binding to the E17K 33-mer epitope relative to the WT epitope (FIG. 15).
Pulldown assays with the biotinylated anchor and his-tagged 33-mer epitope were performed to verify epitope targeting. […] Because small peptide fragments like the 33-mer epitope are difficult to transfer to and detect on the nitrocellulose membrane as for a traditional Western blot, the amount of binding in these assays was detected via HPLC. […]

Setting [6] is: 6 ug GST-tagged PHD, 1% serum in 1xTBS, western blot, listed as yleaf-yksy.
Where [7] appears, read: streptavidin agarose, 1xTBS, western blot band size.

T4 sequence (P31749 1-124 E17K): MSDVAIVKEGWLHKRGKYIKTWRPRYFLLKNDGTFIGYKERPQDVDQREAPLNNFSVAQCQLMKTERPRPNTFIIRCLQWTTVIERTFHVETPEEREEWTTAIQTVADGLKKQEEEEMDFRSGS
T2 sequence (P31749 1-124): as the sequence (P31749 1-124 E17K) above, with K17E counted along it
T5 sequence (P31749 1-124 E17K): as the sequence (P31749 1-124 E17K) above
T1 sequence (P31749 1-124): as the sequence (P31749 1-124 E17K) above, with K17E counted along it
T3 sequence (P31749 5-108 E17K limits assumed): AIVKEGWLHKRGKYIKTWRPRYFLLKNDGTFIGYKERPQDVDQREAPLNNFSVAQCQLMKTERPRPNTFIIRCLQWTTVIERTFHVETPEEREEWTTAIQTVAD

Regarding `CC(=O)N[C@@H](CCCCn1cc(C[C@@H](NC(=O)[C@@H](Cc2ccccc2)NC(=O)[C@@H](C)NC(=O)[C@@H](CCC(=O)O)NC(=O)[C@@H](CC(C)C)NC(=O)[C@@H](Cc2ccc(O)cc2)NC(=O)CCOCCOCCOCCOCCOCCOCCNC(=O)CCCC[C@@H]2SC[C@@H]3NC(=O)N[C@@H]32)C(=O)O)nn1)C(=O)N[C@H](Cc1ccc(O)cc1)C(=O)N[C@H](CCCCN)C(=O)N[C@H](CO)C(=O)N[C@H](Cc1ccc(O)cc1)C(N)=O` [biligand] (I: {Biotin-PEG6}-[dY][dL][dE][dA][dF][dPra]-OH / II: Ac-[Lys(N3)][dY][dK][dS][dY]-NH2; triazole I:6-II:1), the “change in binding affinity for the WT protein versus the preceding ligand (ELISA)” value at WT GST-PH Domain (Akt1) is “an even larger increase in affinity for the WT protein”. Further, the “pulldown of WT GST-PHD by biligand candidates” value in assay [1] (setting [6]) is “the lowest in binding the WT protein; also recorded: the lowest off-target signal to the WT protein”. Further, the “inhibition of E17K PH Domain binding to PIP3-coated resin” value is on record as “exhibited the ability to block the PHD-PIP3 interaction” in assay [2] and “decreased binding of the protein” in assay [2] (listed as biligand 7). Further, the “pulldown of E17K GST-PHD by biligand candidates” value in assay [3] (setting [6]) is on record as “the greatest signal in binding the E17K protein; also recorded: the highest signal for the E17K protein”. Further, in assay [4], the “change in binding affinity for the E17K protein versus the preceding ligand (ELISA)” value is “an increase in affinity for the E17K mutant protein”.
Regarding “eefef ([dE][dE][dF][dE][dF]) [off-target control]”, the “pulldown of wildtype PH Domain by biotinylated anchor candidates” value in assay [1] (setting [7]) is recorded as “the only pulldown of the wildtype protein”. The “pulldown of E17K mutant PH Domain by biotinylated anchor candidates” value in assay [3] (setting [7]) was “the least pulldown for the mutant protein”. For the same molecule, the “amount of E17K 33-mer fragment pulled down (HPLC peak)” value in assay [5] is “much less pull down than the yleaf”.
Turning to “iryrn: triligand candidate: biligand yleaf-yksy with tertiary ligand iryrn (SEQ ID NO: 92) (IRYRN)”, the “change in binding affinity for the WT protein versus the preceding ligand (ELISA)” value in the assay with WT GST-PH Domain (Akt1) is on record as “an even bigger increase for the WT protein”. Moreover, the “change in binding affinity for the E17K protein versus the preceding ligand (ELISA)” value in assay [4] was “a significant improvement on the binding affinity for the E17K protein”.
